Literature values as cited in patent US6761903B2, “Clear oil-containing pharmaceutical compositions containing a therapeutic agent” (Lipocine, Inc., priority 1999, dated 2004).

Conditions: water having a pH at about 7 and below

SMILES | solubility in water
C[C@H](CCC(=O)O)[C@H]1CC[C@H]2[C@@H]3[C@@H](O)C[C@@H]4C[C@H](O)CC[C@]4(C)[C@H]3CC[C@]12C [UDCA, ursodeoxycholic acid] | practically insoluble
C[C@H](CCC(=O)O)[C@H]1CC[C@H]2[C@@H]3[C@H](O)C[C@@H]4C[C@H](O)CC[C@]4(C)[C@H]3CC[C@]12C [CDCA, chenodeoxycholic acid] | practically insoluble
